Laboratory results reported in patent US6215002A, “Pyrrolopyrrolone derivatives as inhibitors of neutrophil elastase” (priority 1996, dated 2001).
pIC50: −log10 of the molar value. Structures can show the parent of a compound that is named as a salt.

Target: T1, human neutrophil elastase (Homo sapiens, UniProt P08246)
T1 sequence (P08246 30-267): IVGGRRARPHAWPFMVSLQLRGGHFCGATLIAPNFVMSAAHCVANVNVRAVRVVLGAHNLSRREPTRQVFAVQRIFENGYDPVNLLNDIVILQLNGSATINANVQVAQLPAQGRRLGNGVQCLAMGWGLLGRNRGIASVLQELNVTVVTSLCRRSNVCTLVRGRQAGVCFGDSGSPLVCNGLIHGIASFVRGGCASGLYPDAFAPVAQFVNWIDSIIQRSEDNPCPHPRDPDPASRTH
Assay: In vitro assay of human neutrophil elastase (HNE)
Assay type: biochemical
Settings: 118 nM purified human neutrophil elastase, pH 8.6, 15 min incubation at 30° C., MeO-succinyl-alanyl-alanyl-prolyl-valyl-p-nitroanilide substrate; read-out: HNE IC50
Summary of the method: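 Residual activity was taken as the 10 min rate of absorbance rise at 405 nm after adding 0.6 mM MeO-succinyl-AAPV-p-nitroanilide. Curve fitting of activity against concentration gave IC50.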

SMILES	pIC50
CCC[C@H]1C(=O)N(S(C)(=O)=O)[C@H]2CCN(S(=O)(=O)c3ccc(C(=O)NC4CC4)cc3)[C@H]12 (relative stereo) [Example 125, rel-N-Cyclopropyl-4-(4-methanesulfonyl-5-oxo-6R-propyl-hexahydro-(3aS,6aR)-pyrrolo[3,2-b]pyrrole-1-sulfonyl)-benzamide]	7.89
CCC[C@H]1C(=O)N(S(C)(=O)=O)[C@H]2CCN(C(=O)CCCCCCCCCN3CCCCC3)[C@H]12 (relative stereo) [Example 70, rel-(3R,3aR,6aS)-1-Methanesulfonyl-4-(10-piperidin-1-yl-decanoyl)-3-propyl-hexahydro-pyrrolo[3,2-b]pyrrol-2-one DL-tartrate]	7.39
CCC[C@H]1C(=O)N(S(C)(=O)=O)[C@H]2CCN(C(=O)CNC)[C@H]12 (relative stereo) [Example 110, rel-(3R,3aR,6aS)-1-Methanesulfonyl-4-methylaminoacetyl-3-propyl-hexahydro-pyrrolo[3,2-b]pyrrol-2-one trifluoroacetate]	6.87
CCC[C@H]1C(=O)N(S(C)(=O)=O)[C@H]2CCN(C(=O)/C=C/c3ccc(CN4CCN(C)CC4)cc3)[C@H]12 (relative stereo) [Example 132, rel-(3R,3aR,6aS)-1-Methanesulfonyl-4-{3-(4-(4-methyl-piperazin-1-ylmethy)-phenyl-(E)-acryloyl}-3-propyl-hexahydro-pyrrolo[3,2-b]pyrrol-2-one dihydrochloride]	7.08
C=CC[C@H]1C(=O)N(S(=O)(=O)c2cccc3c(N(C)C)cccc23)[C@H]2CCN(C(=O)OCc3ccccc3)[C@H]12 (relative stereo) [Example 18, rel-(3aS,6R,6aR)-6-Allyl-4-(5-dimethylamino-naphthalene-1-sulfonyl)-5-oxo-hexahydro-pyrrolo[3,2-b]pyrrole-1-carboxylic acid benzyl ester]	7.16
CCC[C@H]1C(=O)N(S(C)(=O)=O)[C@H]2CCN(C(=O)CCN3C(C)CCCC3C)[C@H]12 (relative stereo) [Example 92, rel-(3R,3aR,6aS)-4-[3-(2,6-Dimethyl-piperidin-1-yl)-propionyl]-1-methanesulfonyl-3-propyl-hexahydro-pyrrolo[3,2-b]pyrrol-2-one hydrochloride]	7.15
CS[C@H]1C(=O)N(S(C)(=O)=O)[C@H]2CCN(C(=O)OCc3ccccc3)[C@H]12 (relative stereo) [Example 157]	6.68
CCC[C@H]1C(=O)N(S(C)(=O)=O)[C@H]2CCN(C(=O)CCCN3CCCCC3)[C@H]12 (relative stereo) [Example 87, rel-(3R,3aR,6aS)-1-Methanesulfonyl-4-(4-piperidin-1-yl-butyryl)-3-propyl-hexahydro-pyrrolo[3,2-b]pyrrol-2-one DL-tartrate]	7.02
CCCCOc1ccc(S(=O)(=O)N2CC[C@H]3[C@H]2[C@@H](C(C)C)C(=O)N3S(C)(=O)=O)cc1 (relative stereo) [Example 230, rel-(3R,3aR,6aS)-4-(4-Butoxy-benzenesulfonyl)-3-isopropyl-1-methanesulfonyl-hexahydro-pyrrolo[3,2-b]pyrrol-2-one]	7.04
CCC[C@H]1C(=O)N(S(C)(=O)=O)[C@H]2CCN(C(=O)c3ccccn3)[C@H]12 (relative stereo) [Example 238, rel-(3R,3aR,6aS)-1-Methanesulfonyl-3-propyl-4-(pyridine-2-carbonyl)-hexahydro-pyrrolo[3,2-b]pyrrol-2-one]	8.05
CCCCOc1ccc(C(=O)N2CC[C@H]3[C@H]2[C@@H](CCC)C(=O)N3S(C)(=O)=O)cc1 (relative stereo) [Example 239, rel-(3R,3aR,6aS)-4-(4-Butoxy-benzoyl)-1-methanesulfonyl-3-propyl-hexahydro-pyrrolo[3,2-b]pyrrol-2-one]	7.74
CC(=O)Nc1ccc(S(=O)(=O)N2CC[C@H]3[C@H]2[C@@H](C(C)C)C(=O)N3S(C)(=O)=O)cc1 (relative stereo) [Example 210, rel-N-[4-(6R-Isopropyl-4-methanesufonyl-5-oxo-hexahydro-(3aS,6aR)-pyrrolo[3,2-b]pyrrole-1-sulfonyl)-phenyl]-acetamide]	6.99
CCC[C@H]1C(=O)N(S(C)(=O)=O)[C@H]2CCN(S(=O)(=O)c3ccc(N)cc3)[C@H]12 (relative stereo) [Example 234, rel-(3R,3aR,6aS)-4-(4-Amino-benzenesulfonyl)-1-methanesulfonyl-3-propyl-hexahydro-pyrrolo[3,2-b]pyrrol-2-one]	7.96
CCC[C@H]1C(=O)N(S(C)(=O)=O)[C@H]2CCN(C(=O)/C=C/C(=O)N3CCN(C)CC3)[C@H]12 (relative stereo) [Example 130, rel-(3R,3aR,6aS)-1-(4-Methanesulfonyl-5-oxo-6-propyl-hexahydro-pyrrolo[3,2-b]pyrrol-1-yl)-4-(4-methyl-piperazin-1-yl)-but-2E-ene-1,4-dione hydrochloride]	7.33
CCC[C@H]1C(=O)N(S(C)(=O)=O)[C@H]2CCN(C(=O)CCCCCN3CCC3)[C@H]12 (relative stereo) [Example 78, rel-(3R,3aR,6aS)-4-(6-Azetidin-1-yl-hexanoyl)-1-methanesulfonyl-3-propyl-hexahydro-pyrrolo[3,2-b]pyrrol-2-one DL-tartrate]	7.06
CCC[C@H]1C(=O)N(S(C)(=O)=O)[C@H]2CCN(S(=O)(=O)CCCN3CCN(C)CC3)[C@H]12 (relative stereo) [Example 10, rel-(3R,3aR,6aS)-1-Methanesulfonyl-4-[3-(4-methyl-piperazin-1-yl)-propane-1-sulfonyl]3-propyl-hexahydro-pyrrolo[3,2-b]pyrrol-2-one dihydrochloride]	7.41
CCC[C@H]1C(=O)N(S(C)(=O)=O)[C@H]2CCN(S(=O)(=O)c3ccc(C#N)cc3)[C@H]12 (relative stereo) [Example 218, rel-4-(4-Methanesulfonyl-5-oxo-6R-propyl-hexahydro-(3aS,6aR)-pyrrolo[3,2-b]pyrrole-1-sulfonyl)-benzonitrile]	7.59
CCC[C@H]1C(=O)N(S(C)(=O)=O)[C@H]2CCN(C(=O)c3cccn3C)[C@H]12 (relative stereo) [Example 240, rel-(3R,3aR,6aS)-1-Methanesulfonyl-4-(1-methyl-1H-pyrrole-2-carbonyl)-3-propyl-hexahydro-pyrrolo[3,2-b]pyrrol-2-one]	7.48
C=CC[C@H]1C(=O)N(S(=O)(=O)c2cccc3cccnc23)[C@H]2CCN(C(=O)OCc3ccccc3)[C@H]12 (relative stereo) [Example 49, rel-(3aS,6R,6aR)-6-Allyl-5-oxo-4-(quinoline-8-sulfonyl)-hexahydro-pyrrolo[3,2-b]pyrrole-1-carboxylic acid benzyl ester]	6.39
C=CC[C@H]1C(=O)N(S(C)(=O)=O)[C@H]2CCN(C(=O)OCc3ccccc3)[C@H]12 (relative stereo) [Example 6, rel-(3aS,6R,6aR)-6-Allyl-4-methanesulfonyl-5-oxo-hexahydro-pyrrolo[3,2-b]pyrrole-1-carboxylic acid benzyl ester]	7.15
CCC[C@H]1C(=O)N(S(C)(=O)=O)[C@H]2CCN(C(=O)CCCCCCCCCN(C)c3ccccc3)[C@H]12 (relative stereo) [Example 68, rel-(3R,3aR,6aS)-1-Methanesulfonyl-4-[10-methyl-phenyl-amino)decanoyl]-3-propyl-hexahydro-pyrrolo[3,2-b]pyrrol-2-one hydrochloride]	7.14
CCC[C@H]1C(=O)N(S(C)(=O)=O)[C@H]2CCN(C(=O)CCN3CCCCCC3)[C@H]12 (relative stereo) [Example 99, hydrochloride]	7.10
CCC[C@H]1C(=O)N(S(C)(=O)=O)[C@H]2CCN(C(=O)Cn3ccc(=O)cc3)[C@H]12 (relative stereo) [Example 113, rel-(3R,3aR,6aS)-1-Methanesulfonyl-4-[(4-oxo-4H-pyridin-1-yl)-acetyl]-3-propyl-hexahydro-pyrrolo[3,2-b]pyrrol-2-one]	6.52
CS(=O)(=O)N1C(=O)[C@H](C2CC2)[C@@H]2[C@@H]1CCN2C(=O)/C=C/CN1CCCCC1 (relative stereo) [Example 257, rel-(3R,3aR,6aS)-3-Cyclopropyl-1-methanesulfonyl-4-(4-piperidin-1-yl-but-2E-enoyl)-hexahydro-pyrrolo[3,2-b]pyrrol-2-one hydrochloride]	7.21
CCC[C@H]1C(=O)N(S(C)(=O)=O)[C@H]2CCN(S(=O)(=O)c3ccc(C(F)(F)F)cc3)[C@H]12 (relative stereo) [Example 216, rel-(3R,3aR,6aS)-1-Methanesulfonyl-3-propyl-4-(4-trifluoromethyl-benzenesulfonyl)-hexahydro-pyrrolo[3,2-b]pyrrol-2-one]	7.06
CCC[C@H]1C(=O)N(S(C)(=O)=O)[C@H]2CCN(C(=O)CCN(C)C)[C@H]12 (relative stereo) [Example 90, rel-(3R,3aR,6aS)-4-(3-Dimethylamino-propionyl)-1-methanesulfonyl-3-propyl-hexahydro-pyrrolo[3,2-b]pyrrol-2-one hydrochloride]	6.52
CC[C@H]1C(=O)N(S(=O)(=O)c2ccc3ccccc3c2)[C@H]2CCN(C(=O)OCc3ccccc3)[C@H]12 (relative stereo) [Example 4, rel-(3aS,6R,6aR)-6-Ethyl-4-(naphthalene-2-sulfonyl)-5-oxo-hexahydro-pyrrolo[3,2-b]pyrrole-1-carboxylic acid benzyl ester]	6.87
CCC[C@H]1C(=O)N(S(=O)(=O)c2ccc3ccccc3c2)[C@H]2CCN(S(C)(=O)=O)[C@H]12 (relative stereo) [Example 22, rel-(3R,3aR,6aS)-4-Methanesulfonyl-1-(naphthalene-2-sulfonyl)-3-propyl-hexahydro-pyrrolo[3,2-b]pyrrol-2-one]	7.22
